Tested on: CFPAC-1 (human pancreatic cancer) xenografts
Experiment: CFPAC-1 xenograft growth inhibition
Type: in vivo
Settings: ITE 100-200 mg/kg i.p. once daily
Protocol: All the procedures related to animal handling, care, and the treatment in the study were performed following guidelines of KeyGen Biotechn Co., Ltd. (Nanjing, China), a contract research organization we hired, based on the guidance of the Association for Assessment and Accreditation of Laboratory Animal Care (AAALAC). Animals were checked for any effects of tumor growth and drug treatment on normal behavior such as mobility, food and water consumption, body weight gain/loss (bodyweights were measured every two days), eye/hair matting, and any other abnormal effect. Death and observed clinical signs were recorded. Individual animals with a tumor volume exceeding 3,000 mm^3 or animals of a group with a mean tumor volume exceeding 2,000 mm^3 were euthanized. In addition, animals showing signs of severe distress and/or pain or losing the capability of accessing adequate food or water were humanely sacrificed.
Cell lines HCT116, Siha, MFC were cultured in DMEM medium (high glucose) supplemented with 10% fetal bovine serum (FBS), SW116 and T24 in RPMI-1640 medium with 10% FBS, M14 and A375 in DMEM medium (high glucose) with 10% calf serum (CS), SGC7901 and Ketr-3 in RPMI-1640 medium with 10% CS, and CFPAC-1 in IMDM medium with 10% FBS. All of the cells were cultured, in the presence of 100 U/ml penicillin and 100 μg/ml streptomycin, at 37° C. in an atmosphere of 5% CO2 in air. […] The cells growing in an exponential phase were harvested and counted for tumor inoculation. Cell lines 5180 and U14 were maintained in ascites (peritoneal cavity fluid) of mice and were harvested and counted for tumor inoculation. […]
Tumor volume was measured every two days in two dimensions using a caliper and the volume was calculated with a formula of: V=0.5 a×b^2, where a and b are the long and short diameter (in mm) of a tumor, respectively. […] The TGD was calculated as: TGD=T−C, where T was the time (in days) required for tumors in a drug treated group to reach a predetermined mean tumor volume and C the time (in days) in the control group to reach the same volume. […]

## COC(=O)c1csc(C(=O)c2c[nH]c3ccccc23)n1 [ITE, 2-(1′H-indole-3′-carbonyl)-thiazole-4-carboxylic acid methyl ester]
TGD at Vol. 1,000
  TGD: 8 days
TGI at day 26, TGI=(1−ΔT/ΔC)×100%
  TGI (%): 58%
End of therapy relative to beginning
  Weight Loss: 14%
